Like-named read-outs stand apart in the source and are kept apart here.
Tests used:
KMS12PE [1] = test: Cell viability assay; assay type: cell-based; conditions: Homo sapiens, KMS-12-PE, 24 h; KMS12PE (MM); read-out: AZD5991 24h GI50
MM1S = test: Cell viability assay; assay type: cell-based; conditions: Homo sapiens, MM1.S, 24 h; MM1S (MM); read-out: AZD5991 24h GI50
Kasumi1 = test: Cell viability assay; assay type: cell-based; conditions: Homo sapiens, Kasumi 1, 24 h; Kasumi1 (AML); read-out: AZD5991 24h GI50
OCIAML2 [2] = test: Cell viability assay; assay type: cell-based; conditions: Homo sapiens, OCI-AML2, 24 h; OCIAML2 (AML); read-out: AZD5991 24h GI50
JVM2 [3] = test: Cell viability assay; assay type: cell-based; conditions: Homo sapiens, JVM-2, 24 h; JVM2 (NHL); read-out: AZD5991 24h GI50
VAL = test: Cell viability assay; assay type: cell-based; conditions: 24 h; VAL (NHL); read-out: AZD5991 24h GI50
CMK = test: Caspase-3/7 activation assay; assay type: cell-based; conditions: Homo sapiens, 6 h
A2058 = test: cells; conditions: Homo sapiens, A2058, 6 h, read-out: AZD5991 6h EC50
Procedure: (§1) Cells were plated at 3000 cells/well in 384-well white plates in corresponding cell growth media. […] Caspase-3/7 activation was subsequently determined using a Caspase-Glo 3/7 Reagent (Promega) and viability was assayed using the CellTiter-Glo Reagent (Promega) as described in manufacturer’s instructions. Dose–response curves for caspase-3/7 activation and viability were plotted and analyzed (including EC50 and GI50 determination) using GraphPad Prism. Percentage of caspase activation was calculated against the maximum caspase activation value (100%) obtained with a proprietary cell kill control.

EVSAT = test: cells; conditions: Homo sapiens, EVSA-T, 6 h, read-out: AZD5991 6h EC50
Procedure: as §1

FaDu = test: cells; conditions: Homo sapiens, 6 h, read-out: AZD5991 6h EC50
Procedure: as §1

H1395 = test: cells; conditions: Homo sapiens, NCI-H1395, 6 h, read-out: AZD5991 6h EC50
Procedure: as §1

H2122 = test: cells; conditions: Homo sapiens, NCI-H2122, 6 h, read-out: AZD5991 6h EC50
Procedure: as §1

H322 = test: cells; conditions: NCI-H322, 6 h, read-out: AZD5991 6h EC50
Procedure: as §1

JVM2 [4] = test: cells; conditions: Homo sapiens, JVM-2, 6 h, read-out: AZD5991 6h EC50
Procedure: as §1

KMS11 = test: cells; conditions: Homo sapiens, KMS-11, 6 h, read-out: AZD5991 6h EC50
Procedure: as §1

KMS12BM = test: cells; conditions: Homo sapiens, KMS-12-BM, 6 h, read-out: AZD5991 6h EC50
Procedure: as §1

KMS12PE [5] = test: cells; conditions: Homo sapiens, KMS-12-PE, 6 h, read-out: AZD5991 6h EC50
Procedure: as §1

Karpas422 = test: cells; conditions: Homo sapiens, KARPAS-422, 6 h, read-out: AZD5991 6h EC50
Procedure: as §1

L363 = test: cells; conditions: Homo sapiens, L-363, 6 h, read-out: AZD5991 6h EC50
Procedure: as §1

OCIAML2 [6] = test: cells; conditions: Homo sapiens, OCI-AML2, 6 h, read-out: AZD5991 6h EC50
Procedure: as §1

OCILY3 = test: cells; conditions: Homo sapiens, OCI-Ly3, 6 h, read-out: AZD5991 6h EC50
Procedure: as §1

OVCAR3 = test: cells; conditions: Homo sapiens, OVCAR-3, 6 h, read-out: AZD5991 6h EC50
Procedure: as §1

RCK8 = test: cells; conditions: Homo sapiens, RCK8, 6 h, read-out: AZD5991 6h EC50
Procedure: as §1

RI1 = test: cells; conditions: Ri-1, 6 h, read-out: AZD5991 6h EC50
Procedure: as §1

SKOV3 = test: cells; conditions: Homo sapiens, SK-OV-3, 6 h, read-out: AZD5991 6h EC50
Procedure: as §1

Sudhl10 = test: cells; conditions: Homo sapiens, SU-DHL10, 6 h, read-out: AZD5991 6h EC50
Procedure: as §1

Sudhl16 = test: cells; conditions: Homo sapiens, SU-DHL-16, 6 h, read-out: AZD5991 6h EC50
Procedure: as §1

Sudhl2 = test: cells; conditions: Homo sapiens, SU-DHL-2, 6 h, read-out: AZD5991 6h EC50
Procedure: as §1

Sudhl5 = test: cells; conditions: Homo sapiens, SU-DHL-5, 6 h, read-out: AZD5991 6h EC50
Procedure: as §1

TMD8 = test: cells; conditions: Homo sapiens, TMD8, 6 h, read-out: AZD5991 6h EC50
Procedure: as §1

U2932 = test: cells; conditions: Homo sapiens, U2932, 6 h, read-out: AZD5991 6h EC50
Procedure: as §1

U2OS = test: cells; conditions: Homo sapiens, 6 h, read-out: AZD5991 6h EC50
Procedure: as §1

Will2 = test: cells; conditions: 6 h, read-out: AZD5991 6h EC50
Procedure: as §1

SMILES: Cc1c2c(nn1C)CSCc1cc(n(C)n1)CSc1cc(c3ccccc3c1)OCCCc1c(C(=O)O)n(C)c3c-2c(Cl)ccc13 (atropisomer, axis not shown; (Ra)) [(Ra)-7]
- GI50 (KMS12PE [1]): 329 nM
- GI50 (MM1S): 348 nM
- GI50 (Kasumi1): 133 nM
- GI50 (OCIAML2 [2]): 295 nM
- GI50 (JVM2 [3]): 547 nM
- GI50 (VAL): 102 nM
- EC50 (CMK; read-out: 6h caspase EC50, CMK, single agent): > 333 nM
- EC50 (CMK; read-out: AZD5991 6h EC50, CMK (AML), caspase 3/7 activation): > 30000 nM
- EC50 (A2058): > 30000 nM
- EC50 (EVSAT): 160 nM
- EC50 (FaDu): 23300 nM
- EC50 (H1395): 15400 nM
- EC50 (H2122): 15200 nM
- EC50 (H322): > 30000 nM
- EC50 (JVM2 [4]): 1030 nM
- EC50 (KMS11): 1570 nM
- EC50 (KMS12BM): 56 nM
- EC50 (KMS12PE [5]): 383 nM
- EC50 (Karpas422): 530 nM
- EC50 (L363): 90 nM
- EC50 (OCIAML2 [6]): 472 nM
- EC50 (OCILY3): > 30000 nM
- EC50 (OVCAR3): > 30000 nM
- EC50 (RCK8): > 30000 nM
- EC50 (RI1): > 30000 nM
- EC50 (SKOV3): > 30000 nM
- EC50 (Sudhl10): 10 nM
- EC50 (Sudhl16): 139 nM
- EC50 (Sudhl2): 275 nM
- EC50 (Sudhl5): 19 nM
- EC50 (TMD8): > 30000 nM
- EC50 (U2932): 24200 nM
- EC50 (U2OS): > 30000 nM
- EC50 (Will2): 193 nM
